Reference: CN113730373A, “一种递送姜黄素的zein-AOS复合纳米颗粒及其制备方法” (Zhejiang Ocean University ZJOU, priority 2021, dated 2021)

How the values were obtained:
[1] = DSC of thermal behaviour of nanoparticles; format: physicochemical
[2] = Curcumin release in simulated gastric fluid (SGF); format: physicochemical; details: pH 2.0, pepsin, 37℃, 100 rpm, sampling to 90 min

Q: Which “characteristic decomposition peak of curcumin” value [1] does the source give for `COc1cc(/C=C/C(=O)CC(=O)/C=C/c2ccc(O)c(OC)c2)ccc1O` [Cur, 姜黄素] here?
A: 179.2 °C

Q: What about the curcumin release rate [2] of the same molecule?
A: 60.5%
